Measurements: ChEMBL document CHEMBL1201862, “PubChem BioAssay data set” (2004)
The source made the active and inactive calls.

What was measured:
[1] = molecular target: FAD-linked sulfhydryl oxidase ALR (Homo sapiens, UniProt P55789); test: inhibitors of human ALR sulfhydryl oxidase, dose response, biochemical, H2O2 detection, luminescence, cherry-pick (AID 493248)
[2] = molecular target: Alkaline phosphatase, placental type (Homo sapiens, UniProt P05187); test: PLAP enzyme inhibitors, confirmation, biochemical, luminescence (AID 1512); type: functional
[3] = molecular target: Integrin alpha-4 (Homo sapiens, UniProt P13612); test: VLA-4 integrin allosteric ligands, SAR follow-up, cell-based, LIBS antibody binding, flow cytometry (AID 488791); type: functional
[4] = decrease of PhoP-driven GFP reporter signal, S. Typhimurium, dose response, PhoP regulon inhibitor project, purified and synthesized compounds, set 2 (AID 2831); type: functional
[5] = test system: Vero; test: cells; type: functional; details: Chlorocebus sabaeus
[6] = molecular target: T1, Corticotropin-releasing factor receptor 2/Corticotropin-releasing factor-binding protein (Homo sapiens, UniProt P24387+Q13324); test: activators of CRF receptor 2 with binding protein – uHTS hits, confirmation (AID 602473); type: functional; details: read-out: EC50_Mean
T1 sequence (Q13324 whole entry): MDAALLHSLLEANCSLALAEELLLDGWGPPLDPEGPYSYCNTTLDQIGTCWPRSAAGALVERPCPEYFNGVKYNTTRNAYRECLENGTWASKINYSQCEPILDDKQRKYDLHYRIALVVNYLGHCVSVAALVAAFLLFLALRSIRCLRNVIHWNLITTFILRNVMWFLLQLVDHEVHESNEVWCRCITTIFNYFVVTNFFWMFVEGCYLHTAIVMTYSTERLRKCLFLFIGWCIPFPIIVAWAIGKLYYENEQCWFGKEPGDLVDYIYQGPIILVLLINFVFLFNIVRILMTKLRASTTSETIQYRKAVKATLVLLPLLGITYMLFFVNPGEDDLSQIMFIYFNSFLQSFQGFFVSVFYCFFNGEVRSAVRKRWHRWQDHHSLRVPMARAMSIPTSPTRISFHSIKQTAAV
T1 sequence (P24387 whole entry): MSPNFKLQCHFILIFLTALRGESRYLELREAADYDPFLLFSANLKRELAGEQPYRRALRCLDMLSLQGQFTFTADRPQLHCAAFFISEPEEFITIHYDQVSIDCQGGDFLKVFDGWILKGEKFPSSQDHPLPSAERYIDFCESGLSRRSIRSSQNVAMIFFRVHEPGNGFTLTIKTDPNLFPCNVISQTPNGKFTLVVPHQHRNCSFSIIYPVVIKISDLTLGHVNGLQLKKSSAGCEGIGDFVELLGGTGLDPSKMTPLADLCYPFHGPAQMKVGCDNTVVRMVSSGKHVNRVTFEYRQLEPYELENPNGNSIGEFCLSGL

[7] = molecular target: Ion channel NompC (Danio rerio, UniProt Q7T1G6); test: Dose response cell-based high-throughput screening assay for agonists of the transient receptor potential channel N1 (TRPN1). [Related pubchem assays (depositor defined):AID1424, AID1448]; type: functional
[8] = molecular target: Mucolipin-3 (Homo sapiens, UniProt Q8TDD5); test: Fluorescence counterscreen assay for […] agonists: dose response cell-based high-throughput screening assay to identify agonists of the transient receptor potential channel ML3 (TRPML3). [Related pubchem assays: 1424, 1448 ]; type: functional
[9] = molecular target: T2, Kappa-type opioid receptor (Homo sapiens, UniProt P41145); test: SAR analysis of Antagonists of the Kappa Opioid Receptor (KOR) using an Image-Based Assay - Set 4. [Related pubchem assays (depositor defined):AID1777, AID1785]; type: functional
[10] = molecular target: Mu-type opioid receptor (Homo sapiens, UniProt P35372); test: SAR Analysis of Antagonists of the MOR Receptor using an Image-Based Assay - Set 3. [Related pubchem assays (depositor defined):AID1777, AID1785, AID1786, AID1966, AID2133, AID2136, AID2284, AID2285, AID2420]; type: functional
[11] = molecular target: Delta-type opioid receptor (Homo sapiens, UniProt P41143); test: SAR Analysis of Antagonists of the DOR Receptor using an Image-Based Assay - Set 3. [Related pubchem assays (depositor defined):AID1777, AID1785]; type: functional;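 also: U2OS cells expressing DOR1 and beta-arrestin GFP stimulated with 100 nM SNC80; imaging of GFP-tagged beta-arrestin moving into spots after receptor activation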
[12] = molecular target: T2, Kappa-type opioid receptor; test: SAR analysis of small molecule antagonists of the kappa opioid receptor via a luminescent beta-arrestin assay - Set 3. [Related pubchem assays (depositor defined):AID1777, AID1778, AID1785, AID1786, AID1966, AID2133, AID2136, AID2285, AID2495]; type: functional
[13] = molecular target: T3, Intestinal-type alkaline phosphatase (Homo sapiens, UniProt P09923); test: Dose Response confirmation of uHTS hits from a small molecule inhibitors of human intestinal alkaline phosphatase via a luminescent assay. [Related pubchem assays (depositor defined):AID2544, AID2574]; type: functional
[14] = molecular target: T3, Intestinal-type alkaline phosphatase; test: human intestinal alkaline phosphatase activators, dose response, biochemical, luminescence, uHTS hits (AID 463120); type: functional
[15] = molecular target: T4, Coagulation factor XII (Homo sapiens, UniProt P00748); test: Factor XIIa Dose Response Confirmation from Single Well HTS. [Related pubchem assays (depositor defined):AID701]; type: functional
T4 sequence (P00748 whole entry): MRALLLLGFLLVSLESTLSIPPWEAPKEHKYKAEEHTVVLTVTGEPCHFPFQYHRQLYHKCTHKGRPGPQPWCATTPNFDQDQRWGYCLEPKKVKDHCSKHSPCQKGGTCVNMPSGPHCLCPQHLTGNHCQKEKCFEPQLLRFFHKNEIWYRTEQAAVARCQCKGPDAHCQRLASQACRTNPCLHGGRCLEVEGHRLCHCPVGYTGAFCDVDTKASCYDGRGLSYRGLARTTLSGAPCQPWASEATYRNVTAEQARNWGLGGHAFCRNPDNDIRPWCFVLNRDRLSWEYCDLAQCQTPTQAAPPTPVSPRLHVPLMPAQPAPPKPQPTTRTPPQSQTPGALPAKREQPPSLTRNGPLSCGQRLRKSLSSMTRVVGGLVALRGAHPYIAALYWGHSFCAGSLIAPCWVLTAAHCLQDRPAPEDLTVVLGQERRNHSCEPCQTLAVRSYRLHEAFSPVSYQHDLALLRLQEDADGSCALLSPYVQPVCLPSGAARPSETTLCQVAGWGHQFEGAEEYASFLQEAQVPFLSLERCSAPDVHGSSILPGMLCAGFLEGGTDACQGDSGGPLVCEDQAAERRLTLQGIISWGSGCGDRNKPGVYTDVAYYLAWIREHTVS

[16] = molecular target: Lytic switch protein BZLF1 (Epstein-Barr virus (strain B95-8) (HHV-4) (Human herpesvirus 4), UniProt P03206); test: EBV ZTA inhibitors, dose response, counter-screen for EBNA-1 inhibitor project, biochemical, fluorescence polarization, Epstein-Barr virus, 1536-well (AID 2377); set-up: species or system human gammaherpesvirus 4;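 also: fluorescence polarization of Cy5-labelled ZRE DNA probe bound by purified Zta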
[17] = molecular target: Sphingosine 1-phosphate receptor 4 (Homo sapiens, UniProt O95977); test: Late-stage fluorescence dose response cell-based assay to identify agonists of the Sphingosine 1-Phosphate Receptor 4 (S1P4): purchased compounds EC50. [Related pubchem assays (depositor defined):AID1509, AID1523, AID1563, AID1686, AID1701, AID1801]; type: functional
[18] = molecular target: Epstein-Barr nuclear antigen 1 (Epstein-Barr virus (strain B95-8) (HHV-4) (Human herpesvirus 4), UniProt P03211); test: EBNA-1 inhibitors, dose response, biochemical, fluorescence polarization, 1536-well (AID 2381); set-up: species or system human gammaherpesvirus 4;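 also: fluorescence polarization of a Cy5 DNA probe bound by EBNA-1 protein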
[19] = molecular target: T5, SUMO-activating enzyme (Homo sapiens, UniProt Q9UBT2); test: inhibitors of in vitro SUMOylation cascade, primary screen, biochemical, HTRF, uHTS (AID 2006); type: protein-complex assay
[20] = molecular target: T6, Voltage-gated N-type calcium channel alpha-1B subunit/Amyloid beta A4 precursor protein-binding family A member 1 (Homo sapiens, UniProt Q00975+Q02410); type: protein assay
[21] = molecular target: T6, Voltage-gated N-type calcium channel alpha-1B subunit/Amyloid beta A4 precursor protein-binding family A member 1; type: protein assay; remark: listed apart in the source
[22] = molecular target: T5, SUMO-activating enzyme; test: SUMOylation inhibitor hit validation, confirmation, SUMOylation inhibitor project, biochemical, AlphaScreen (AID 2018); type: functional
[23] = molecular target: Induced myeloid leukemia cell differentiation protein Mcl-1 (Homo sapiens, UniProt Q07820); type: functional
[24] = molecular target: T7, Zinc finger protein mex-5 (Caenorhabditis elegans, UniProt Q9XUB2); test: MEX-5/TCR-2 RNA interaction inhibitors, dose response, biochemical, C. elegans, fluorescence polarization (AID 1960)
T7 sequence (Q9XUB2 whole entry): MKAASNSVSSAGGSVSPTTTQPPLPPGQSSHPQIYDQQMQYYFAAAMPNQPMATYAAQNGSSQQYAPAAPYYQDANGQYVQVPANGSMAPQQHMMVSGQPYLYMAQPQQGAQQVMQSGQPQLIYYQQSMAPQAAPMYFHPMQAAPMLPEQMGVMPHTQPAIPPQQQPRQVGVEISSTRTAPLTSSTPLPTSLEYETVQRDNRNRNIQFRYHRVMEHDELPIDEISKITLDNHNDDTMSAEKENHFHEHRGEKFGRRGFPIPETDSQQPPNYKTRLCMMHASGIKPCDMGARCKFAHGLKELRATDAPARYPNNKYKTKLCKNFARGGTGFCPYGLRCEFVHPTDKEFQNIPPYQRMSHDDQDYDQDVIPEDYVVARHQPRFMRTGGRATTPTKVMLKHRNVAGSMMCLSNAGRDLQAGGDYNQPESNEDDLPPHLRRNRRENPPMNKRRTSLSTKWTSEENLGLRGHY

[25] = molecular target: T8, RNA-binding protein pos-1 (Caenorhabditis elegans, UniProt G5EF15); test: inhibitors of POS-1/mex-3 RNA binding, dose response, biochemical, fluorescence polarization (AID 1964);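 also: purified POS-1 fused to maltose binding protein made in E. coli; potency of compounds blocking POS-1 binding to fluorescent RNA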
T8 sequence (G5EF15 whole entry): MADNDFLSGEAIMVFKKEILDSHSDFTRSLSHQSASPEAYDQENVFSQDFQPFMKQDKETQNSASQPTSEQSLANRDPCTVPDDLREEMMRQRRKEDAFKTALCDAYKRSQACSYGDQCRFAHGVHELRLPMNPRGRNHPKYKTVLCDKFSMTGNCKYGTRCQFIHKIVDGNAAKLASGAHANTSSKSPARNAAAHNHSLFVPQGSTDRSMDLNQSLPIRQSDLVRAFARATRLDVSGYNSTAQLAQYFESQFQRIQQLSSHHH

T5 sequence (Q9UBE0 whole entry): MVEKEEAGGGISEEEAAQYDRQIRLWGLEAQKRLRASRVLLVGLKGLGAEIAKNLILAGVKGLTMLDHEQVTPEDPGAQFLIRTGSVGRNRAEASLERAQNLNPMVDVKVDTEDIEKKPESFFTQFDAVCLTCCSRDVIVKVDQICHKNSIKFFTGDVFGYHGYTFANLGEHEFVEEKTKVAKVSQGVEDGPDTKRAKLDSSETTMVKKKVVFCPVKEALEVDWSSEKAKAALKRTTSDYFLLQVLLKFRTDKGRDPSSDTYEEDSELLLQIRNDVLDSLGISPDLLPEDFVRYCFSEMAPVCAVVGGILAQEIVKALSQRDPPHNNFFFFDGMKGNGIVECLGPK
T5 sequence (Q9UBT2 whole entry): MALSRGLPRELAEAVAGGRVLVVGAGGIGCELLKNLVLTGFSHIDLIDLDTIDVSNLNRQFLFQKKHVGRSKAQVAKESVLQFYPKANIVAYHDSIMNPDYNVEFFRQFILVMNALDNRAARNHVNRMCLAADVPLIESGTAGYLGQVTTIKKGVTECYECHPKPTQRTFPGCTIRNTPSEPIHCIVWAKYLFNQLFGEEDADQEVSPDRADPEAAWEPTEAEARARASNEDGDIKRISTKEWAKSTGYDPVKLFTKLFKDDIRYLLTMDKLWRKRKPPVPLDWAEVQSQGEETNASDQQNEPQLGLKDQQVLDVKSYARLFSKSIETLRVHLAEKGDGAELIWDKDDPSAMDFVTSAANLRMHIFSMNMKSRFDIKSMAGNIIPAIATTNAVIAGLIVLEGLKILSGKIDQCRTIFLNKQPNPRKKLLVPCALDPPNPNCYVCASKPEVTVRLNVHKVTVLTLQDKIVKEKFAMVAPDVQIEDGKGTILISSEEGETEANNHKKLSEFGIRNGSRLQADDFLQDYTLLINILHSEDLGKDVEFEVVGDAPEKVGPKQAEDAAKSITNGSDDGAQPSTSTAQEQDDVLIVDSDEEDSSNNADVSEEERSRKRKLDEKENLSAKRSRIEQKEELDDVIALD
T2 sequence (P41145 whole entry): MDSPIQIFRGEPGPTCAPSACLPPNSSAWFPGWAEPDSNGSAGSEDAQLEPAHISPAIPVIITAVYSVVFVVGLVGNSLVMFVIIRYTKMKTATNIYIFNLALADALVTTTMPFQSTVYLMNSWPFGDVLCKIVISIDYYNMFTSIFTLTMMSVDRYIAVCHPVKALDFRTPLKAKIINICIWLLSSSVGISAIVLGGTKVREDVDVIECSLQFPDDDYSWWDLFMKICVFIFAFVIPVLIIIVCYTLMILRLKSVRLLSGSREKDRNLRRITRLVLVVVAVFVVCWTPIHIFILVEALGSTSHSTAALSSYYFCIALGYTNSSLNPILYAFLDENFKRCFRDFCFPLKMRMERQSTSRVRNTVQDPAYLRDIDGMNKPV
T6 sequence (Q00975 whole entry): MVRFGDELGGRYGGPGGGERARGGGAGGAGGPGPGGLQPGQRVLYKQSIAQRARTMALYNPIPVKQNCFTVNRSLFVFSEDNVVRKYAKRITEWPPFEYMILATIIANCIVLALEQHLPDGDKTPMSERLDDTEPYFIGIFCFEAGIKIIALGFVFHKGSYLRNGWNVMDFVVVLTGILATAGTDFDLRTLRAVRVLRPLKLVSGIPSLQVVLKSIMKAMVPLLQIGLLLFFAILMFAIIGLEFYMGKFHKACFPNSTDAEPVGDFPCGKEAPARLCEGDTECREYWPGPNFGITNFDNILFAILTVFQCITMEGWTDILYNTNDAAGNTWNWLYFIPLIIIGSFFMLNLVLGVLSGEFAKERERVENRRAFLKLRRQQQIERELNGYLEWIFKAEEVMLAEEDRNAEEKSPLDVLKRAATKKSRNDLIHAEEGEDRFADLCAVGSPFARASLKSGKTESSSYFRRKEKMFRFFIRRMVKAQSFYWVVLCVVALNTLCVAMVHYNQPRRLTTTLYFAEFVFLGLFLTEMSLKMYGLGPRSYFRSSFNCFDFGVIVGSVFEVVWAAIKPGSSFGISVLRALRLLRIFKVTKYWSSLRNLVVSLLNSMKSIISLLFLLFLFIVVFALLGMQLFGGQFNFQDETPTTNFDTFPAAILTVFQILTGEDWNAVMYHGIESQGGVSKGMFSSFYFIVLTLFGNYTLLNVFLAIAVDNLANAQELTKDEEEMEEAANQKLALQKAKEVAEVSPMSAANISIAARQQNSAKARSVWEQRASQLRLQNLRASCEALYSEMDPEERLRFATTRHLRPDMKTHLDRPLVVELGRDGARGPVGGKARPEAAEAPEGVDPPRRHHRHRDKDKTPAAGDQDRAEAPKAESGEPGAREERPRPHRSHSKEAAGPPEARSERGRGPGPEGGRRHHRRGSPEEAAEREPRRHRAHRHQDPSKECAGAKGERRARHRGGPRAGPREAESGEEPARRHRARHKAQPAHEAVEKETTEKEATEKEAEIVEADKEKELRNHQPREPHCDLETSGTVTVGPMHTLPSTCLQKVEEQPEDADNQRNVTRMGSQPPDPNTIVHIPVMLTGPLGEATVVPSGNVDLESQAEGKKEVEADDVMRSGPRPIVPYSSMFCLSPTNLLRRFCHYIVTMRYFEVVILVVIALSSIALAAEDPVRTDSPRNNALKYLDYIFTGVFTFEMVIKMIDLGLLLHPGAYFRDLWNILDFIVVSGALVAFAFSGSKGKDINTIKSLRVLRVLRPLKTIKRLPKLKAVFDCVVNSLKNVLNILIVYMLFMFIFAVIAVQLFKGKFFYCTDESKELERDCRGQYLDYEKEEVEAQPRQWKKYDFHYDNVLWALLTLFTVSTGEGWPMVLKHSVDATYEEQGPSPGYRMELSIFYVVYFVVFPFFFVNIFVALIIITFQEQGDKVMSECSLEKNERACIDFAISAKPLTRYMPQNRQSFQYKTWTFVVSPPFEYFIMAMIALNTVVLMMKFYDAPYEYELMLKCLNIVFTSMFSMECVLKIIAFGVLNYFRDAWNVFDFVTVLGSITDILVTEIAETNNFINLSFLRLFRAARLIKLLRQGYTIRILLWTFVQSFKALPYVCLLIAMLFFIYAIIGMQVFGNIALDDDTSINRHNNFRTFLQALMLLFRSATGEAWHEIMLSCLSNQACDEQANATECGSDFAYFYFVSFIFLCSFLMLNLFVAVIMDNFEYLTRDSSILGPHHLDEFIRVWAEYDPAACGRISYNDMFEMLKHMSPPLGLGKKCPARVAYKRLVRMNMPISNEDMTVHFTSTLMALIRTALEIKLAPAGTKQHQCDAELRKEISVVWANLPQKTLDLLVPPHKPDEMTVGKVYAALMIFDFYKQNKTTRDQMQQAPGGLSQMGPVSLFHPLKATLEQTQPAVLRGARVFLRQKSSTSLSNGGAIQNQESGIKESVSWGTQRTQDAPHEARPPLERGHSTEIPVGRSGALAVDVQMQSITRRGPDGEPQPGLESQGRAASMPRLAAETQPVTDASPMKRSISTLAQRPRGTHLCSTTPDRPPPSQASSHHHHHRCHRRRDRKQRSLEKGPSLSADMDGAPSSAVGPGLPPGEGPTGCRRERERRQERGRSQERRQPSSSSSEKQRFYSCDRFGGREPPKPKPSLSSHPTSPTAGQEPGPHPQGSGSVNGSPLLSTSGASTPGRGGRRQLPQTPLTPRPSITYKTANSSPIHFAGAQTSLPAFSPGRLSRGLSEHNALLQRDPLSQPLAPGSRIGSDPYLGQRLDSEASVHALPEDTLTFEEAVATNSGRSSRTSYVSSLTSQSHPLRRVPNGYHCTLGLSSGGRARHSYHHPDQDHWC
T6 sequence (Q02410 whole entry): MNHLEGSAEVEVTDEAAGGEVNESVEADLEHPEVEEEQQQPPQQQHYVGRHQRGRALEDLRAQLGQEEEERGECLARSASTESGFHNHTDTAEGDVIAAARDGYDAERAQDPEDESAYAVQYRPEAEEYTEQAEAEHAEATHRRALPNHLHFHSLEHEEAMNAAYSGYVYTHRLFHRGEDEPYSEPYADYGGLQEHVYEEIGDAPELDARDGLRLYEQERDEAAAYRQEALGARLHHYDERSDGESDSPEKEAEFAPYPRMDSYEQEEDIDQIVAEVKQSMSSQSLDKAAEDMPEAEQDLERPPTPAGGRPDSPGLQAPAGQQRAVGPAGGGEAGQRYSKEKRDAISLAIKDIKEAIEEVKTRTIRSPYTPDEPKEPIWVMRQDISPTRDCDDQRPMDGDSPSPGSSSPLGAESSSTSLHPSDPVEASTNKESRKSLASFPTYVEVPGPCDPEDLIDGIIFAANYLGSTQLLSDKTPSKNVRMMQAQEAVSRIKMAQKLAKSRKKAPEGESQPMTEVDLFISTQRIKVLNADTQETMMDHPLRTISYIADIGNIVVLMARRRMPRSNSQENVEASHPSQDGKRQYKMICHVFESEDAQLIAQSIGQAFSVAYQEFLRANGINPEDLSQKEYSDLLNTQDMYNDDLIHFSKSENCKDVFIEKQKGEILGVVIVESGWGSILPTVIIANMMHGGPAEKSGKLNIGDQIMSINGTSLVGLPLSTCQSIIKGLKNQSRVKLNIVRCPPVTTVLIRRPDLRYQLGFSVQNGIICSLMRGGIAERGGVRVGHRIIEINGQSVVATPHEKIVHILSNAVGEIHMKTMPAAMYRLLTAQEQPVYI
T3 sequence (P09923 whole entry): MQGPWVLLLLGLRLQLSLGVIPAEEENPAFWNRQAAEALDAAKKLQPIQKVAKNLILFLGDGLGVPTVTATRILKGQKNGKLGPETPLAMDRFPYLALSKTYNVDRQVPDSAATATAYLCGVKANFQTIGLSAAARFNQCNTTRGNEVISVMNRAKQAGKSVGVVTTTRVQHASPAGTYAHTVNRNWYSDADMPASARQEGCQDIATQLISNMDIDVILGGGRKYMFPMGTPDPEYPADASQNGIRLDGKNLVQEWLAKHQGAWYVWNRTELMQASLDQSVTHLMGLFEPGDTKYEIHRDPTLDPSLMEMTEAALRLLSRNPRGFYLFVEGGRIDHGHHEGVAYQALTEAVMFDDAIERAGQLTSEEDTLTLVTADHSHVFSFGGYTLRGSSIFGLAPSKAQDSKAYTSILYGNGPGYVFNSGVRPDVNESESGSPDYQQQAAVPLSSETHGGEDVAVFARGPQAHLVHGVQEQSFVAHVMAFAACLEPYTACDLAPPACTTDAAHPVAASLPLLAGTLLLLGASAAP

SMILES: O=C(NNc1ccccn1)C(=O)NNS(=O)(=O)c1ccc(Cl)cc1
- AC50 [1]: 0.786 µM (active)
- IC50 [2]: > 100 µM (inactive)

SMILES: Cc1ccc(NC(=O)c2cc(N3C(=O)CCC3=O)ccc2N2CCOCC2)cc1Cl
- EC50 [3]: 23.3 µM (active)

SMILES: O=C1C2=C(Nc3ccccc3SC2c2cccc(Cl)c2)c2ccccc21 (stereo not given)
- IC50 [4]: > 150 µM (active)

SMILES: Cc1ccc(S(=O)(=O)Nc2ccc(NC(=O)c3c(F)c(F)c(F)c(F)c3F)cc2)cc1
- CC50 [5]: 23 µM (active)
- EC50 [6]: 5.66 µM (active)
- EC50 [7]: > 29.9 µM (inactive)
- EC50 [8]: > 29.9 µM (not active)

SMILES: COc1ccc(N2CCN(CCCNC(=O)Cn3c(=O)c4cccn4c4cc(Br)cnc43)CC2)c(OC)c1
- IC50 [9]: 3.02 µM (active)
- IC50 [10]: 10.2 µM (inactive)
- IC50 [11]: > 32 µM (inactive)
- IC50 [12]: 2.82 µM (active)

SMILES: CC1(C)C[C@@H](O)CC2(C1)C[C@]1(C)CC(O)[C@H]2C(C)(C)C1 (stereo not given in full)
- IC50 [13]: > 100 µM (inactive)
- EC50 [14]: > 100 µM (inactive)

SMILES: Cc1ccc(CNC(=O)C[S+]([O-])CC(=O)O)cc1 (stereo not given)
- IC50 [15]: > 50 µM (inactive)

SMILES: Cc1nn(Cc2ccccc2)c(Cl)c1C(=O)OC(C)C(=O)Nc1ccc(F)cc1Cl (stereo not given)
- IC50 [16]: > 111 µM (not active)
- EC50 [17]: > 50 µM (inactive)
- IC50 [18]: 5.89 µM (active)

SMILES: COc1cc(OC)c2c(O)c3c(c(-c4c5c(c(O)c6c(OC)cc(OC)cc46)CO[C@@H](C)[C@H]5O)c2c1)[C@H](O)[C@H](C)OC3
- IC50 [19]: 17.1 µM (active)
- IC50 [20]: 20.3 µM (active)
- IC50 [21]: 4.27 µM (active)
- IC50 [22]: 6.03 µM (active)
- IC50 [23]: 2.51 µM (not active)
- EC50 [24]: > 300 µM (not active)
- EC50 [25]: > 300 µM (not active)
